Results on 3 compounds are retold here after paper PMC3639963, “A New Class of Small Molecule Inhibitor of BMP Signaling” (PLoS ONE, 2013).

Assay in all cases: DSF thermal shift
Common to all, as to format: binding
Holding throughout (conditions): 10 µM inhibitor; read-out: Tm shift

In one test the target is T1, LOK (Homo sapiens, UniProt O94804).
T1 construct: purchased Nanosyn (enzymatic panel); SGC in-house recombinant human kinases (DSF panel); Invitrogen (ALK1-6)
The protocol: (§1) Thermal melting experiments were performed using a Real Time PCR machine Mx3005p (Stratagene) with a protein concentration of 1–2 µM and 10 µM inhibitor as described previously, [25]. […] Recombinant human kinases for DSF screening were prepared by SGC using published methods, [36].

A further test addresses T2, ERK1 (Homo sapiens, UniProt P27361).
T2 construct: purchased Nanosyn (enzymatic panel); SGC in-house recombinant human kinases (DSF panel); Invitrogen (ALK1-6)
The protocol:
as §1

For the next test, the target named is T3, MST4 (Homo sapiens, UniProt Q9P289).
T3 construct: purchased Nanosyn (enzymatic panel); SGC in-house recombinant human kinases (DSF panel); Invitrogen (ALK1-6)
T3 sequence (Q9P289 whole entry): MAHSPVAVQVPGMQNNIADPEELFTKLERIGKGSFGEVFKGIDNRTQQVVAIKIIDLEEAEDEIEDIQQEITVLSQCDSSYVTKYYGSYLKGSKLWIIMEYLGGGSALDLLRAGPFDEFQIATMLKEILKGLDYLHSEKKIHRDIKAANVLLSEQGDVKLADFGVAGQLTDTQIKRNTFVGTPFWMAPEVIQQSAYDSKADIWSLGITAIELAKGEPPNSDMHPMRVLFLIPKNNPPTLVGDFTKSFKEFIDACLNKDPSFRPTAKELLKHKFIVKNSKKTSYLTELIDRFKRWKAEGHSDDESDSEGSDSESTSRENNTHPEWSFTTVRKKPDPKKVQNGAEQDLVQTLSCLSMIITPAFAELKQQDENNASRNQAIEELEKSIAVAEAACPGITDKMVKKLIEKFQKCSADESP
The protocol: as §1

A further test addresses T4, FES (Homo sapiens, UniProt P07332).
T4 construct: purchased Nanosyn (enzymatic panel); SGC in-house recombinant human kinases (DSF panel); Invitrogen (ALK1-6)
The protocol:
as §1

A further test concerns the target T5, VRK2 (Homo sapiens, UniProt Q86Y07).
T5 construct: purchased Nanosyn (enzymatic panel); SGC in-house recombinant human kinases (DSF panel); Invitrogen (ALK1-6)
The protocol:
as §1

The target in another test is T6, RSK1 (Homo sapiens, UniProt Q15418).
T6 construct: purchased Nanosyn (enzymatic panel); SGC in-house recombinant human kinases (DSF panel); Invitrogen (ALK1-6)
T6 sequence (Q15418 whole entry): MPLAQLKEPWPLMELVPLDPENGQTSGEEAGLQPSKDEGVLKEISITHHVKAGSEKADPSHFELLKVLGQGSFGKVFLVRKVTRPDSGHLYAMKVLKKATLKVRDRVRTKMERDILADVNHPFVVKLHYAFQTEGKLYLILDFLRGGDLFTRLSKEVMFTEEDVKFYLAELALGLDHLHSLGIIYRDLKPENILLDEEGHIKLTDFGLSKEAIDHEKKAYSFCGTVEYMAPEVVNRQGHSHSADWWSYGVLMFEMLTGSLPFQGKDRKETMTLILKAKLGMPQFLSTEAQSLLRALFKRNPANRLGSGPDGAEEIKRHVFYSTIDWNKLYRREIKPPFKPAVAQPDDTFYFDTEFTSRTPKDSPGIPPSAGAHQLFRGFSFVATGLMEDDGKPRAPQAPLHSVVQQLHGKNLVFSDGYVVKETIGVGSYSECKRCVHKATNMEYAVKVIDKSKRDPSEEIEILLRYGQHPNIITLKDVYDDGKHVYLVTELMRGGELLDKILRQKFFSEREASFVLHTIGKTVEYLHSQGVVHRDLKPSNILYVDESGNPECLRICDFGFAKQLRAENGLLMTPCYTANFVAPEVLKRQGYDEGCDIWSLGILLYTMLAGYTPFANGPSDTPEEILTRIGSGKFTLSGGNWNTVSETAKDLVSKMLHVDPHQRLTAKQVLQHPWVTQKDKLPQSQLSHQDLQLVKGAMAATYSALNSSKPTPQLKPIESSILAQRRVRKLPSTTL
The protocol:
as §1

The next test concerns the target T7, p38δ (Homo sapiens, UniProt O15264).
T7 construct: purchased Nanosyn (enzymatic panel); SGC in-house recombinant human kinases (DSF panel); Invitrogen (ALK1-6)
T7 sequence (O15264 1-365): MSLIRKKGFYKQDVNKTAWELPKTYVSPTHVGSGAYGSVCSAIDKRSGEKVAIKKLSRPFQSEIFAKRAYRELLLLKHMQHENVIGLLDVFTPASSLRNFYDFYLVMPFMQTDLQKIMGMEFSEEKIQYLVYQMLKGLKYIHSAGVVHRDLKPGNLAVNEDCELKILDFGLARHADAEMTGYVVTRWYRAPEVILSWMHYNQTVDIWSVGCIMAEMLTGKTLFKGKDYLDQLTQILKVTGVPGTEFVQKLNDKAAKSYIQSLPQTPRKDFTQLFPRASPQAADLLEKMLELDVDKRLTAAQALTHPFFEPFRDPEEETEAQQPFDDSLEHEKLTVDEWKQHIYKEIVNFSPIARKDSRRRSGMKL
The protocol: as §1

Another test addresses T8, Haspin (Homo sapiens, UniProt Q8TF76).
T8 construct: purchased Nanosyn (enzymatic panel); SGC in-house recombinant human kinases (DSF panel); Invitrogen (ALK1-6)
T8 sequence (Q8TF76 1-798): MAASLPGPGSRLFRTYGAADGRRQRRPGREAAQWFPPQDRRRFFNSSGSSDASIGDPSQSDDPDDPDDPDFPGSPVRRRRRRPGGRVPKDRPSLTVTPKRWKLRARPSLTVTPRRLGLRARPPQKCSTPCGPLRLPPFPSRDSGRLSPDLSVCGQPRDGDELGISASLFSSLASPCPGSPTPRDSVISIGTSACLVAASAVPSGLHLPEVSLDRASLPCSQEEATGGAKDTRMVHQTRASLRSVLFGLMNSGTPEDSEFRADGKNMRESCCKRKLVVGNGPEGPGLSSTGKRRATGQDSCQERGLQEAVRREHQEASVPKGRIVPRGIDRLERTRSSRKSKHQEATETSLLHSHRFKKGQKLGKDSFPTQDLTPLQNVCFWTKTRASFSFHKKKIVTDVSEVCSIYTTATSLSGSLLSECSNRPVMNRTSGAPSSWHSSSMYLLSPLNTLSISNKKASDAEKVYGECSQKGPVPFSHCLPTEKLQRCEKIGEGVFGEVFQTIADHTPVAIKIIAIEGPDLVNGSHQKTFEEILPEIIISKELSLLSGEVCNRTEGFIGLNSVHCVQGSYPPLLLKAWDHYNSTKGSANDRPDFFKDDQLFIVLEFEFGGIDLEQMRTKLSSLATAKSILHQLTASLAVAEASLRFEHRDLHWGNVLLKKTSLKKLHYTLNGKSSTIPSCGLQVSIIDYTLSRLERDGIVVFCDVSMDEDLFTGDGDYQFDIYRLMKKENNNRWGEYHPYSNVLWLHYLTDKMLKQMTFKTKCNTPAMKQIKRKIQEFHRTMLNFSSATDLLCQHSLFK
The protocol:
as §1

Another test deals with T9, MEK2 (Homo sapiens, UniProt P36507).
T9 construct: purchased Nanosyn (enzymatic panel); SGC in-house recombinant human kinases (DSF panel); Invitrogen (ALK1-6)
T9 sequence (P36507 whole entry): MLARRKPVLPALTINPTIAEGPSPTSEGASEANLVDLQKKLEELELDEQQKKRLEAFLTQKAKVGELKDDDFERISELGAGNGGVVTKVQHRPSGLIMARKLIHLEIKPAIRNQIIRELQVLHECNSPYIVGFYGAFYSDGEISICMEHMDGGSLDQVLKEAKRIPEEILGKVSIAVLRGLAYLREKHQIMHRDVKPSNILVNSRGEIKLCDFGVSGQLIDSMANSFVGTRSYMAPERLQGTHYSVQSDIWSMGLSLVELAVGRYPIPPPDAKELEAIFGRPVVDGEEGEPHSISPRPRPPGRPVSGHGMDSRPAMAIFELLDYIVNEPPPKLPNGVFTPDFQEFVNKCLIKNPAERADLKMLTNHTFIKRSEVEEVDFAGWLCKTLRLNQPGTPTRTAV
The protocol:
as §1

The target of another test is T10, CLK2 (Homo sapiens, UniProt P49760).
T10 construct: purchased Nanosyn (enzymatic panel); SGC in-house recombinant human kinases (DSF panel); Invitrogen (ALK1-6)
T10 sequence (P49760 whole entry): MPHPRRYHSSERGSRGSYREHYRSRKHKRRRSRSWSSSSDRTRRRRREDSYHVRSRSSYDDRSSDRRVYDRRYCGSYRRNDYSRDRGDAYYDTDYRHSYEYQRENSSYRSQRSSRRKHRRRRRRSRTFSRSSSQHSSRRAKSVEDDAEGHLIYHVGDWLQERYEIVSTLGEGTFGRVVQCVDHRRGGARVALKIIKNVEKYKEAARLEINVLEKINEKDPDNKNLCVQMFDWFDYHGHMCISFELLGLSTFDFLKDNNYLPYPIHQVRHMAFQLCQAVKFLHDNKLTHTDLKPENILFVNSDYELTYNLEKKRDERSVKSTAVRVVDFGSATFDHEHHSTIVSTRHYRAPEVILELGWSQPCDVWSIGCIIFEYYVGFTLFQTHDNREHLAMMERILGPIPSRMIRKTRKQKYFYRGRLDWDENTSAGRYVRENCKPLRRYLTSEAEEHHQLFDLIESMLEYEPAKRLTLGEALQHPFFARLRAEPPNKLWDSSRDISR
The protocol: as §1

A further test concerns the target T11, AMPKα2 (Homo sapiens, UniProt P54646).
T11 construct: purchased Nanosyn (enzymatic panel); SGC in-house recombinant human kinases (DSF panel); Invitrogen (ALK1-6)
The protocol: as §1

Another test concerns the target T12, ActRIIA (Homo sapiens, UniProt P27037).
T12 construct: purchased Nanosyn (enzymatic panel); SGC in-house recombinant human kinases (DSF panel); Invitrogen (ALK1-6)
The protocol:
as §1

T12 sequence (P27037 20-513): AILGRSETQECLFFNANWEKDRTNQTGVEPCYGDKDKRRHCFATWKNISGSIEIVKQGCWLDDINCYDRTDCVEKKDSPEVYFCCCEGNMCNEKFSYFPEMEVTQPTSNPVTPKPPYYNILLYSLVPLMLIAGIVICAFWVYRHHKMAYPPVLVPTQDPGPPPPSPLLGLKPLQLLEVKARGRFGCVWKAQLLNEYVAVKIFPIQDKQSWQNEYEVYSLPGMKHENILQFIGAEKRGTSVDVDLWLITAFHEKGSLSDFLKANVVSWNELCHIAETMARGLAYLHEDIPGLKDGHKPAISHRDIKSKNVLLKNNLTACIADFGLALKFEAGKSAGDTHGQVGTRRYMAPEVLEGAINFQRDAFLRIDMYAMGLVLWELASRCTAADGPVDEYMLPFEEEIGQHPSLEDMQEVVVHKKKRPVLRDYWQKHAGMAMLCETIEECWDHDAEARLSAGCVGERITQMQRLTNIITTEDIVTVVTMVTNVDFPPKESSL
T5 sequence (Q86Y07 whole entry): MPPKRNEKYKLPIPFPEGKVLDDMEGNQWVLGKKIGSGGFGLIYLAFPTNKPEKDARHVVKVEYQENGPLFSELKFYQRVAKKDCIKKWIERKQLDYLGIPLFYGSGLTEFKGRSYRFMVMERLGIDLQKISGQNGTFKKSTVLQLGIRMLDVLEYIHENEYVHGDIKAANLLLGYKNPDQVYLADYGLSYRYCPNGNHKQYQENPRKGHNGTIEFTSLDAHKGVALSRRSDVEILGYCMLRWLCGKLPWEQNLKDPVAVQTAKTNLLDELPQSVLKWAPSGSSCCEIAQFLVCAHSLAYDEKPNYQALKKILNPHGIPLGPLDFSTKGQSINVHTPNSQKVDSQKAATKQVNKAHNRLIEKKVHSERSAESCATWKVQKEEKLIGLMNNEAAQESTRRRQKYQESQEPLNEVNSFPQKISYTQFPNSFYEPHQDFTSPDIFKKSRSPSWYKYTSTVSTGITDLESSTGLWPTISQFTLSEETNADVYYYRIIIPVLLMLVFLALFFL
T11 sequence (P54646 whole entry): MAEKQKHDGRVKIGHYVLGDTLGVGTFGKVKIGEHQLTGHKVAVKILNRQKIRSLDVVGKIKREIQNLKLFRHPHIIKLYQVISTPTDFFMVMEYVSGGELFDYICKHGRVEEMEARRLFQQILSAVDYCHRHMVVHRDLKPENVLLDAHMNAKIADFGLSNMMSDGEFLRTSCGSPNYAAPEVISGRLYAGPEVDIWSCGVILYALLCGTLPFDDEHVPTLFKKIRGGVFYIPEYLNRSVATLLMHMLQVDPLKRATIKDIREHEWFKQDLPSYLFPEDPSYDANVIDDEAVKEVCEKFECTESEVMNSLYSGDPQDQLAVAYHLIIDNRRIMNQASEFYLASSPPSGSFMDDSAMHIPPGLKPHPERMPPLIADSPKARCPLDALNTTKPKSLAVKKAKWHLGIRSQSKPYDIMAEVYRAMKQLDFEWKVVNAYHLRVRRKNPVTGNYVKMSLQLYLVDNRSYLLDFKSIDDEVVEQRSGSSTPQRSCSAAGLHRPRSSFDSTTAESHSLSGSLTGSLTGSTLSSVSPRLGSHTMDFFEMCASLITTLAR
T4 sequence (P07332 whole entry): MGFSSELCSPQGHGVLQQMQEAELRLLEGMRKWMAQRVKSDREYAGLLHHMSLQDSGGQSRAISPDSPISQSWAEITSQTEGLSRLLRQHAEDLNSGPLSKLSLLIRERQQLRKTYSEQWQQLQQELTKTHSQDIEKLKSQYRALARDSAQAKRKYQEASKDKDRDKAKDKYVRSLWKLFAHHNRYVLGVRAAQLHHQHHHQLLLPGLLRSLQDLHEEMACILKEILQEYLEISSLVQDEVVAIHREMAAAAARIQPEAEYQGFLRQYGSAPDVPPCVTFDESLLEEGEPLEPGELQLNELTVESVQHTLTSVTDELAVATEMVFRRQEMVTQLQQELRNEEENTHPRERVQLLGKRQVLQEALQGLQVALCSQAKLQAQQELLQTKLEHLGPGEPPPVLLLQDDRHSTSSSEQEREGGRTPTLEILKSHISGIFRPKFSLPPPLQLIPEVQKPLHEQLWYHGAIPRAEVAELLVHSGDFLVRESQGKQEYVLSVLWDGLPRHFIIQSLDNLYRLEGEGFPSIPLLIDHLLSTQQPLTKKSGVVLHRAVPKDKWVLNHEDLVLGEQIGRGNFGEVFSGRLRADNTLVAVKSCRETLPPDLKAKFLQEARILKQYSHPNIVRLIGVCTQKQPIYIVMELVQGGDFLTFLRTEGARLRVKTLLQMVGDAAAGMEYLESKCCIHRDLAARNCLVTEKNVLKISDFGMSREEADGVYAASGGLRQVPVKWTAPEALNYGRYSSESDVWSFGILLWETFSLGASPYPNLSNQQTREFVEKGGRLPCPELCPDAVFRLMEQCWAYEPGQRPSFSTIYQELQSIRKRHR
T2 sequence (P27361 whole entry): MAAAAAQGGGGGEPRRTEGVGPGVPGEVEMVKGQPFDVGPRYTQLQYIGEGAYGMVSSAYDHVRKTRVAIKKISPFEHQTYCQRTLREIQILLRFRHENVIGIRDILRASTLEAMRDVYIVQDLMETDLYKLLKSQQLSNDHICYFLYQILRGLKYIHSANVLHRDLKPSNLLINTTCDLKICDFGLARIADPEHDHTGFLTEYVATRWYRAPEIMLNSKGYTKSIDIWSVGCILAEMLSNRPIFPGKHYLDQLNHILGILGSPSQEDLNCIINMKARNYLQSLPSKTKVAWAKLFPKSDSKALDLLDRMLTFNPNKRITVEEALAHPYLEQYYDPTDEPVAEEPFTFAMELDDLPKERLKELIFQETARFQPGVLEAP

Take `c1ccc2c(-c3cnn4cc(-c5ccc(N6CCNCC6)cc5)cnc34)ccnc2c1` [LDN-193189]: the ΔTm at 10 µM on LOK was 3.1 °C; on ERK1, 0.2 °C; at MST4 it was 0.8 °C; on FES, 0.4 °C; on VRK2 it was -0.2 °C; on RSK1 it was 3.3 °C. Besides, the ΔTm at 10 µM was -0.4 °C at p38δ; 0.4 °C on Haspin; 2.1 °C on MEK2; 3.3 °C on CLK2; 8.3 °C at AMPKα2; 8.6 °C on ActRIIA.
Take `COc1cc(-c2cc(-c3cccc(O)c3)cnc2N)cc(OC)c1OC` [K02288, 3-[6-amino-5-(3,4,5-trimethoxy-phenyl)-pyridin-3-yl]-phenol]: the ΔTm at 10 µM at LOK stood at 2.1 °C; at ERK1, 0.2 °C; on MST4 it was 0.2 °C; at FES it was 0.4 °C; at VRK2 it was 0.6 °C; at RSK1, 1.1 °C. The ΔTm at 10 µM on p38δ is -0.2 °C; at Haspin it was 0.3 °C; at MEK2 it was 2.4 °C; on CLK2 it was 0 °C; at AMPKα2, 1.2 °C; at ActRIIA it was 8.3 °C.
Turning to `c1cc(-c2cnn3cc(-c4ccc(OCCN5CCCCC5)cc4)cnc23)ccn1` [Dorsomorphin], the ΔTm at 10 µM at LOK amounted to 2.5 °C; on ERK1, 0 °C; at MST4, 0.7 °C; on FES, 0.5 °C; at VRK2, 0.2 °C; at RSK1, 2.8 °C. Moreover, the ΔTm at 10 µM on p38δ was 0 °C; on Haspin, 2.3 °C; at MEK2, -0.1 °C; on CLK2, 5 °C; on AMPKα2, 7.1 °C; on ActRIIA it was 6.1 °C.
